Where “and” joins values, the source holds several entries; their conditions need not be identical. Equal values may be shown once.
Assay: Wnt APC Inhibition Assay: Reporter cell lines can be generated by stably transducing cells of cancer cell lines (e.g., colon cancer) with a lentiviral construct that include a wnt-responsive promoter driving expression of the firefly luciferase gene.Lentiviral constructs can be made in which the SP5 promoter, a promoter having eight TCF/LEF binding sites derived from the SP5 promoter, is linked upstream of the firefly luciferase gene. The lentiviral constructs can also include a hygromycin resistance gene as a selectable marker. The SP5 promoter construct can be used to transduce SW480 cells, a colon cancer cell line having a mutated APC gene that generates a truncated APC protein, leading to de-regulated accumulation of β-catenin. […] Compounds from a small molecule compound library can then be added to the wells in half-log dilutions using a ten micromolar top concentration. A series of control wells for each cell type receive only buffer and compound solvent. Twenty-four to forty hours after the addition of compound, reporter activity for luciferase can be assayed, for example, by addition of the BrightGlo luminescence reagent (Promega) and the Victor3 plate reader (Perkin Elmer). Readings can be normalized to DMSO only treated cells, and normalized activities can then be used in the IC50 calculations.

In the case of `CC(C)(C)C(=O)Nc1cncc(-c2cnc3[nH]nc(-c4nc5c(-c6cccc(F)c6)cncc5[nH]4)c3c2)c1`, the IC50 is reported as 38 nM and 6 nM.
